For experiment [1], the target named is T1, 3-beta-hydroxysteroid-Delta(8),Delta(7)-isomerase (Cavia porcellus, UniProt Q60490).
T1 sequence (Q60490 whole entry): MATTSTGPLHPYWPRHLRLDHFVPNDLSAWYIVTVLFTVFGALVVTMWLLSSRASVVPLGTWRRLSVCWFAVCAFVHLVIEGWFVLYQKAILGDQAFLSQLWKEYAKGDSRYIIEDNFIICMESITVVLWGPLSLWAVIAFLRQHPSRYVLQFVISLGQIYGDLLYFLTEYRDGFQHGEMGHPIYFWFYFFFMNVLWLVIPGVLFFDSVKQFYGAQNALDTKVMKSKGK
As to the kind of experiment: Displacement of [3H]emopamil from Delta-(8)-Delta-(7) sterol isomerase in guinea pig liver membrane. The class given is cell membranes. In general terms: Loss of bound radioactivity is the signal in a displacement assay; it reports binding, not function.

Experiment [2] is described as follows: Selectivity for sigma1 receptor over sigma2 receptor.
In experiment [3] the target is Sigma non-opioid intracellular receptor 1 (Cavia porcellus, UniProt Q60492). In words: Displacement of [3H]pentazocine from Sigma1 receptor in guinea pig brain membrane. The experiment is classed as cell membranes.
Sigma non-opioid intracellular receptor 1, sequence (Q60492 whole entry): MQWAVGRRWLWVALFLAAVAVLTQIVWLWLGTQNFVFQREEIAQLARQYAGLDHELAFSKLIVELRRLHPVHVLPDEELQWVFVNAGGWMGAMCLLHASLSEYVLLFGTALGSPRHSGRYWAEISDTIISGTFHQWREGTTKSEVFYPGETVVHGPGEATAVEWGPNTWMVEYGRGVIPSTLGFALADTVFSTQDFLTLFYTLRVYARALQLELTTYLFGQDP
Experiment [4] can be described thus: Displacement of [3H]DTG from sigma2 receptor in Wistar rat liver membrane in presence of 1 uM […]. The experiment is classed as cell membranes.
A short description of experiment [5]: (§1) Binding affinity to sigma2 receptor in Wistar rat liver membrane. The class given is cell membranes.
The species named for a further experiment is Rattus norvegicus. Described as §1. The class given is cell membranes.

Turning to `CC1(C)CCCN(CCCn2c3ccccc3c3ccccc32)C1`, the inhibition constant (Ki) (in general, the equilibrium dissociation constant of an inhibitor or competing ligand from its target) in experiment [1] was 345 nM; in experiment [3], 2020 nM; in experiment [4], 4480 nM. Besides, in experiment [2], the Ratio Ki came out at 2.

With `CC1(C)CCCN(CCCCn2c3ccccc3c3ccccc32)C1`, the values for the Ki in experiment [1], in experiment [3] and in experiment [4] were 270 nM, 175 nM and 520 nM, respectively. Moreover, the Ratio Ki in experiment [2] is 3.

Take `COc1cccc2c(CCCN3CCN(C4CCCCC4)CC3)cccc12`: the Ki in experiment [1] is 4.51 nM; in experiment [4], 9.24 nM.

On to `Oc1ccc2cccc(CCCN3CCN(C4CCCCC4)CC3)c2c1`, for which the inhibition constant Ki in experiment [1] was 55 nM; in experiment [3], 5.48 nM; in experiment [4], 11.8 nM. Besides, in experiment [2], the Ratio Ki was 2.

In the case of `Oc1ccc2c(CCCN3CCN(C4CCCCC4)CC3)cccc2c1`, the figures for the Ki in experiment [1], in experiment [3] and in experiment [4] were 21.3 nM, 6.78 nM and 26.4 nM, respectively. Further, binding in experiment [5] was put at a Kd of 21.3 nM. This molecule also displayed a Bmax in the experiment filed under Rattus norvegicus of 0.47 pmol/mg. The Ratio Ki in experiment [2] was determined as 4.

In the case of `COc1ccc2cccc(CCCN3CCCC(C)(C)C3)c2c1`, the results for the inhibition constant (Ki) in experiment [1], in experiment [3] and in experiment [4] were 4.12 nM, 115 nM and 672 nM, respectively. In addition, the Ratio Ki in experiment [2] stood at 6.

As for `CC(C(O)c1ccc(O)cc1)N1CCC(Cc2ccccc2)CC1` (racemic) [IFENPRODIL], in experiment [1], the Ki was 19.8 nM.

For `CC1(C)CCCN(CCCCCn2c3ccccc3c3ccccc32)C1`, the inhibition constant (Ki) in experiment [1] turned out to be 24 nM; in experiment [3], 138 nM; in experiment [4], 117 nM. Also, the Ratio Ki in experiment [2] is 0.8.

With `CC1(C)CCCN(CCCc2cccc3cc(O)ccc23)C1`, the inhibitory constant (Ki) amounted to 352 nM in experiment [1], 340 nM in experiment [3] and 600 nM in experiment [4]. In addition, the Ratio Ki in experiment [2] turned out to be 2.

With `CC1(C)CCCN(CCCc2cccc3ccc(O)cc23)C1`, the Ki stood at 30 nM in experiment [1], 733 nM in experiment [3] and 412 nM in experiment [4]. Besides, in experiment [2], the Ratio Ki was 0.6.

Turning to `COc1ccc2c(CCCN3CCN(C4CCCCC4)CC3)cccc2c1`, the Ki in experiment [1] was determined as 7.06 nM; in experiment [3] it was 3.16 nM; in experiment [4], 9.02 nM. Also, the Ratio Ki in experiment [2] came out at 3.

Take `c1ccc2c(c1)c1ccccc1n2CCCN1CCN(C2CCCCC2)CC1`: the figures for the Ki in experiment [1], in experiment [3] and in experiment [4] were 79.9 nM, 3450 nM and 12.6 nM, respectively. In addition, the Ratio Ki in experiment [2] was 0.004.

As to `COc1ccc2c(CCCN3CCCC(C)(C)C3)cccc2c1`, the Ratio Ki in experiment [2] amounted to 680.

`COc1cccc2c(CCCN3CCCC(C)(C)C3)cccc12`: the Ki in experiment [1] stood at 12.8 nM; in experiment [3] it was 44.9 nM; in experiment [4], 643 nM. Besides, the Ratio Ki in experiment [2] was 14.

On to `Cc1ccccc1NC(=N)Nc1ccccc1C` [DITOLYLGUANIDINE], for which, in experiment [4], the Ki came to 30.8 nM.

Regarding `COc1ccc2cccc(CCCN3CCN(C4CCCCC4)CC3)c2c1`, the Ki in experiment [1] was 42.4 nM; in experiment [3] it was 0.9 nM; in experiment [4] it was 8.27 nM. For the same molecule, the Ratio Ki in experiment [2] turned out to be 9.
